Consider 2 sequences from patent US20070128217A1 (priority 2003, published 2007).

In assay [1] the test system is control sera (pooled serum of ten healthy LUMC hospital workers; commercial negative donor pooled serum from the Dutch bloodbank). Type of assay: binding, human.
Assay [2] deals with antibodies in sera from SARS patients (sera 1a, 1b, 2, 6, 37, 62, London, SARS-yellow, SARS-green). Type of assay: binding, human. Also on record: Binding of serum 6 to linear peptides of protein X1 of SARS-CoV Urbani / Binding of serum 37 to linear peptides of protein X1 of SARS-CoV Urbani / Binding of serum 6 to looped/cyclic peptide (PEPSCAN-ELISA) / Binding of serum 37 to looped/cyclic peptide (PEPSCAN-ELISA) / Binding of serum 37 to looped/cyclic peptides of protein X1 of SARS-CoV Urbani / Binding of serum 6 to linear peptides of protein X2 / Binding of serum 37 to linear peptides of protein X2 / Binding of serum 37 to looped/cyclic peptides of protein X2 of SARS-CoV Urbani / Binding of serum 6 to linear peptides of protein M of SARS-CoV Urbani / Binding of serum 37 to linear peptides of protein M of SARS-CoV Urbani / Binding of serum 6 to looped/cyclic peptides of protein M of SARS-CoV Urbani / Binding of serum 37 to looped/cyclic peptides of protein M of SARS-CoV Urbani / Binding of serum 6 to linear peptides of protein X3 of SARS-CoV Urbani / Binding of serum 37 to linear peptides of protein X3 of SARS-CoV Urbani / Binding of serum 37 to looped/cyclic peptides of protein X3 of SARS-CoV Urbani / Binding of serum 6 to linear peptides of protein X4 of SARS-CoV Urbani / Binding of serum 37 to linear peptides of protein X4 of SARS-CoV Urbani / Binding of serum 37 to looped/cyclic peptides of protein X4 of SARS-CoV Urbani / Binding of serum 6 to linear peptides of protein X5 of SARS-CoV Urbani / Binding of serum 37 to linear peptides of protein X5 of SARS-CoV Urbani / Binding of serum 37 to looped/cyclic peptides of protein X5 of SARS-CoV Urbani / Binding of serum 6 to linear peptides of protein N of SARS-CoV Urbani / Binding of serum 37 to linear peptides of protein N of SARS-CoV Urbani / Binding of serum 6 to linear peptide (PEPSCAN-ELISA) / Binding of serum 1a to looped/cyclic peptides of protein N of SARS-CoV Urbani / Binding of serum 1b to looped/cyclic peptides of protein N of SARS-CoV Urbani / Binding of serum 2 to looped/cyclic peptides of protein N of SARS-CoV Urbani / Binding of serum 6 to looped/cyclic peptides of protein N of SARS-CoV Urbani / Binding of serum 37 to looped/cyclic peptides of protein N of SARS-CoV Urbani / Binding of serum 62 to looped/cyclic peptides of protein N of SARS-CoV Urbani / Binding of serum London to looped/cyclic peptides of protein N of SARS-CoV Urbani / Binding of serum SARS-green to looped/cyclic peptides of protein N of SARS-CoV Urbani: unit not given here.

Assay [3] relates to rabbit serum obtained by immunizing a rabbit with the SARS-CoV strain Frankfurt 1. The format is binding. Also on record: Binding of a rabbit serum to linear peptides / Binding of a rabbit serum to looped peptides / Rabbit serum linear peptides / Rabbit serum looped peptides / Binding of a rabbit serum to linear peptides of protein N of SARS-CoV Urbani (Rabbit serum linear peptides) / Binding of a rabbit serum to looped/cyclic peptides of protein N of SARS-CoV Urbani (Rabbit serum looped peptides): unit not given here.

As for MSLYMAISPKFTTSL, in assay [1], the “Binding of Control Serum Blood-Bank to Looped peptides” value was found to be 0.8, the “Binding of Control serum Blood-bank to linear peptides” value was found to be 0.7, the “Binding of Control serum LUMC to linear peptides” value is recorded as 0.6 and the “Binding of Control serum LUMC to looped peptides” value was 0.9. Also, in assay [2], the “Binding of serum 1a to linear peptides of protein X2” value is 0.8, the “Binding of serum 1a to looped/cyclic peptides of protein X2 of SARS-CoV Urbani” value is listed as 0.7, the “Binding of serum 1b to linear peptides of protein X2” value is 0.7 and the “Binding of serum 1b to looped/cyclic peptides of protein X2 of SARS-CoV Urbani” value amounted to 0.6. Also, in assay [2], the “Binding of serum 2 to linear peptides of protein X2” value came out at 0.4, the “Binding of serum 2 to looped/cyclic peptides of protein X2 of SARS-CoV Urbani” value came to 0.4, the “Binding of serum 6 to linear peptides of protein X2” value is 0.3 and the “Binding of serum 6 to looped/cyclic peptides of protein X2 of SARS-CoV Urbani” value was 0.5. In assay [2], the “Binding of serum 37 to linear peptides of protein X2” value was 0.6, the “Binding of serum 37 to looped/cyclic peptides of protein X2 of SARS-CoV Urbani” value stood at 0.5, the “Binding of serum 62 to linear peptides of protein X2” value is listed as 0.6 and the “Binding of serum 62 to looped/cyclic peptides of protein X2 of SARS-CoV Urbani” value was determined as 0.8. For the same sequence, in assay [2], the “Binding of serum London to linear peptides of protein X2” value was found to be 0.4, the “Binding of serum London to looped/cyclic peptides of protein X2 of SARS-CoV Urbani” value turned out to be 0.4, the “Binding of serum SARS-green to linear peptides of protein X2” value worked out at 0.5 and the “Binding of serum SARS-green to looped/cyclic peptides of protein X2 of SARS-CoV Urbani” value stood at 0.3. Also, in assay [2], the “Binding of serum SARS-yellow to linear peptides of protein X2” value is 0.3 and the “Binding of serum SARS-yellow to looped/cyclic peptides of protein X2 of SARS-CoV Urbani” value turned out to be 0.5. In assay [3], the “Binding of a rabbit serum to linear peptides” value was 0.3 and the “Binding of a rabbit serum to looped peptides” value was 0.5.

Regarding MTTVYHITVSQIQLS, in assay [1], the “Binding of Control Serum Blood-Bank to Looped peptides” value came to 0.6, the “Binding of Control serum Blood-bank to linear peptides” value stood at 0.6, the “Binding of Control serum LUMC to linear peptides” value came out at 0.6 and the “Binding of Control serum LUMC to looped peptides” value was found to be 0.5. In assay [2], the “Binding of serum 1a to linear peptides of protein X2” value is recorded as 0.7, the “Binding of serum 1a to looped/cyclic peptides of protein X2 of SARS-CoV Urbani” value came out at 0.5, the “Binding of serum 1b to linear peptides of protein X2” value worked out at 0.6 and the “Binding of serum 1b to looped/cyclic peptides of protein X2 of SARS-CoV Urbani” value worked out at 0.5. In assay [2], the “Binding of serum 2 to linear peptides of protein X2” value is reported as 0.5, the “Binding of serum 2 to looped/cyclic peptides of protein X2 of SARS-CoV Urbani” value was 0.3, the “Binding of serum 6 to linear peptides of protein X2” value came to 0.5 and the “Binding of serum 6 to looped/cyclic peptides of protein X2 of SARS-CoV Urbani” value is listed as 0.3. For the same sequence, in assay [2], the “Binding of serum 37 to linear peptides of protein X2” value turned out to be 0.6, the “Binding of serum 37 to looped/cyclic peptides of protein X2 of SARS-CoV Urbani” value was found to be 0.5, the “Binding of serum 62 to linear peptides of protein X2” value is 0.5 and the “Binding of serum 62 to looped/cyclic peptides of protein X2 of SARS-CoV Urbani” value is reported as 0.6. In assay [2], the “Binding of serum London to linear peptides of protein X2” value is 0.5, the “Binding of serum London to looped/cyclic peptides of protein X2 of SARS-CoV Urbani” value is reported as 0.2, the “Binding of serum SARS-green to linear peptides of protein X2” value is recorded as 0.2 and the “Binding of serum SARS-green to looped/cyclic peptides of protein X2 of SARS-CoV Urbani” value worked out at 0.4. In assay [2], the “Binding of serum SARS-yellow to linear peptides of protein X2” value is on record as 0.6 and the “Binding of serum SARS-yellow to looped/cyclic peptides of protein X2 of SARS-CoV Urbani” value is 0.4. For the same sequence, in assay [3], the “Binding of a rabbit serum to linear peptides” value was determined as 0.7 and the “Binding of a rabbit serum to looped peptides” value is recorded as 0.4.
